According to patent US20250134855A1, “CO[…] AND METHODS OF USING SAME” (LYKOS THERAPEUTICS, INC., priority 2022, published 2025):
Where two headings read alike, the source gives them in different places.

What was measured:
[1] = Study MPKF: plasma pharmacokinetics of MDMA and MDA, single 120 mg MDMA·HCl, fasted/fed; type: in vivo, human; details: for concentration at 0.5 h: .5 h; for AUC(0-inf): read-out: AUC0-inf; for half-life: read-out: t1/2 (converted); for Tmax: median
Description: (§1) The MPKF was a Phase 1, open-label, randomized sequence, multi-dose, 2-period crossover food effect study in 16 healthy individuals. The MPKF study evaluated plasma concentrations of both MDMA and the active metabolite 3,4-methylenedioxyamphetamine (MDA). Summary PK Parameters of the preliminary data was based on interim analysis are presented in Table 12 Table 12 Table 12, and Table 13 Table 13 Table 13 for MDMA and MDA, respectively.
Participants were randomized to receive 1 of 2 conditions before the other: • Fasted Treatment: at least 10 hours of fasting followed by administration of MDMA HCl with 240 mL water. • Fed Treatment: at least 10 hours of fasting followed by a high-fat (approximately 50% of total caloric content of the meal) and high-calorie (approximately 800 to 1000 calories) meal was consumed within 30 minutes prior to IMP administration.
(§2) Participants remained at the clinical research unit (CRU) for each Dosing Session from the time of check-in on the night before dosing until discharge 48 hours after dosing for collection of serial blood samples for PK analysis and safety monitoring. IMP was administered on Day 1 following the treatment sequence to which the participant was randomized. An additional outpatient visit occurred 72 hours after dosing to collect a final PK sample, commensurate with the expected PK profiles of MDMA and MDA. Safety assessments were also performed at this visit.
(§3) The washout period between Dosing Sessions was at least 14 days. If a participant experienced emesis within 4 hours of administration, they were to be withdrawn from the study and replaced with a new participant. An End of Study Visit was performed 2 to 10 days after the completion of the final Dosing Session 72-hour follow-up. An informal interim analysis was planned to be conducted after at least 5 participants completed at least 1 Dosing Session to examine PK variability.
The API was a white crystalline powder of pharmaceutical quality, made according to current Good Manufacturing Practices (cGMP) for human use.
Participants: Sixteen healthy individuals were recruited for the study.
Intervention: The study was conducted as a Phase 1, open-label, randomized sequence, multi-dose, 2-period crossover food effect study. Each participant received multiple doses of MDMA, and plasma concentrations of both MDMA and the active metabolite MDA were measured.
Sample Collection: Blood samples were collected at various time points up to 72 hours after dosing. The samples were analyzed using validated liquid chromatography-tandem mass spectrometry (LC-MS/MS) methods.
Data Analysis: The summary PK parameters were presented in Table 12 for MDMA and Table 13 for MDA. The data were analyzed using descriptive statistics, and the mean and standard deviation were calculated. The results were compared between the two periods and analyzed for food effects. Statistical analyses were performed using appropriate methods, such as analysis of variance (ANOVA) and paired t-tests. A p-value of less than 0.05 was considered statistically significant.

[2] = target: MDR1 (Homo sapiens, UniProt P08183); assay: Transporter inhibition, MDR1
MDR1, sequence (P08183 whole entry): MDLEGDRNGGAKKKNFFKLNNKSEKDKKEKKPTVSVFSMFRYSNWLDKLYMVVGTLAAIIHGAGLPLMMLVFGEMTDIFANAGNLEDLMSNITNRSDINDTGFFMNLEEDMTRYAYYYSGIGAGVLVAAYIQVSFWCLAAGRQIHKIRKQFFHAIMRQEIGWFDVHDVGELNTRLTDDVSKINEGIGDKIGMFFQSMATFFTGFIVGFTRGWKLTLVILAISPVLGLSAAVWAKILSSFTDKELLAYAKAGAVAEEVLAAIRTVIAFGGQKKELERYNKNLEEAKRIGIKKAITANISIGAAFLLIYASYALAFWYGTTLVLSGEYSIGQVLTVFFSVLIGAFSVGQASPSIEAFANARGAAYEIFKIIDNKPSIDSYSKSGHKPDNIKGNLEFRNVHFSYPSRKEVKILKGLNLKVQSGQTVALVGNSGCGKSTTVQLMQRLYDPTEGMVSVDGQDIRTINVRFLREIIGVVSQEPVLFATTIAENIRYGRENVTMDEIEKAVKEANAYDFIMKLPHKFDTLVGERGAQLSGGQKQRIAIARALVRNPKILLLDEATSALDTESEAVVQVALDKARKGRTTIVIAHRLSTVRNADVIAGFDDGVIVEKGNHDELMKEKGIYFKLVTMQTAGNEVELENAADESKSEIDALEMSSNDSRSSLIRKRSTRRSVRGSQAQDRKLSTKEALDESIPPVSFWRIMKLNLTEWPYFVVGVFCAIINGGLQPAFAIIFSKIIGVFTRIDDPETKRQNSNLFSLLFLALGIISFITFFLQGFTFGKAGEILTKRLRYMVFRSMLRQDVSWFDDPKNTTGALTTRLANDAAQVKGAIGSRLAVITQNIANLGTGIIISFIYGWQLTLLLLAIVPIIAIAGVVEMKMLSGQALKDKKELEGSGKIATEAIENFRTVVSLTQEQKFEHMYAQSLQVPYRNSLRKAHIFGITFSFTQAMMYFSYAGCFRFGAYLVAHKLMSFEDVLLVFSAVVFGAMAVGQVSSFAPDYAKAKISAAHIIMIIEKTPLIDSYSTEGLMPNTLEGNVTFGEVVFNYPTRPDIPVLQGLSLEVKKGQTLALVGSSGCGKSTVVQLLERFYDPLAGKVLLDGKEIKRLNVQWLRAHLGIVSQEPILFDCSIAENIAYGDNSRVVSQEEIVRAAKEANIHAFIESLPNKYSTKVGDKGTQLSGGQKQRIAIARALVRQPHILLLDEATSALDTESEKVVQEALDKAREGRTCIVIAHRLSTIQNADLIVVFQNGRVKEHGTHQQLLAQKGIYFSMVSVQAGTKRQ

[3] = target: BCRP (Homo sapiens, UniProt Q9UNQ0); assay: Transporter substrate assessment, BCRP; details: not told
BCRP, sequence (Q9UNQ0 whole entry): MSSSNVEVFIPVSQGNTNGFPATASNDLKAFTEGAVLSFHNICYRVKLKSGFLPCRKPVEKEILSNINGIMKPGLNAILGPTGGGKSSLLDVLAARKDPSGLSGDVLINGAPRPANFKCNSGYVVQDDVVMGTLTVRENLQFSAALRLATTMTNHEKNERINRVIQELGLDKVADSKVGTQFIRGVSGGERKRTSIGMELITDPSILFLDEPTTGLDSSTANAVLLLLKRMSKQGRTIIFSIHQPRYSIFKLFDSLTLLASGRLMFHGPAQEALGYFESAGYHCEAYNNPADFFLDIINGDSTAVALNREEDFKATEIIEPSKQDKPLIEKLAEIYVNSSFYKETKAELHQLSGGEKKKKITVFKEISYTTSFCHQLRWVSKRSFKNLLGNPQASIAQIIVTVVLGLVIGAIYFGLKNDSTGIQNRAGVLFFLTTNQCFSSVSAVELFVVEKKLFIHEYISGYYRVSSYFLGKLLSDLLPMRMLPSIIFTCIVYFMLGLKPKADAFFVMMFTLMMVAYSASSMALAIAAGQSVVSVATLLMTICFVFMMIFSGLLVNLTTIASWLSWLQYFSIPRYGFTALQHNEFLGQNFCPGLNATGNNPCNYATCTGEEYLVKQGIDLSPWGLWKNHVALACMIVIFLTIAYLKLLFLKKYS

[4] = system: CHO-WBL cells; assay: Chromosomal aberrations in CHO-WBL cells; type: cell-based; details: with and without metabolic activation
[5] = system: male and female rats; assay: Fertility study, male and female rats; type: in vivo, rat
Description: MDMA (0, 2.5, 5, and 10 mg/kg/day) was orally administered to male and female rats before mating. Males were dosed once daily for 28 days prior to pairing and dosing continued until euthanasia. Females were dosed once daily for 21 days prior to pairing and dosing continued though gestational day seven.

[6] = Study MPKF: safety and tolerability (AEs, laboratory, vital signs); type: in vivo, human; details: human, plasma, oral, 120 mg, 1 participant, no AEs reported
Description: as §1, §2, §3

[7] = system: healthy individuals; assay: as above; type: in vivo, human
Description: as §1, §2, §3

[8] = target: human ether-à-go-go-related gene (hERG) potassium current (Homo sapiens, UniProt Q12809); assay: hERG potassium current inhibition
human ether-à-go-go-related gene (hERG) potassium current, sequence (Q12809 whole entry): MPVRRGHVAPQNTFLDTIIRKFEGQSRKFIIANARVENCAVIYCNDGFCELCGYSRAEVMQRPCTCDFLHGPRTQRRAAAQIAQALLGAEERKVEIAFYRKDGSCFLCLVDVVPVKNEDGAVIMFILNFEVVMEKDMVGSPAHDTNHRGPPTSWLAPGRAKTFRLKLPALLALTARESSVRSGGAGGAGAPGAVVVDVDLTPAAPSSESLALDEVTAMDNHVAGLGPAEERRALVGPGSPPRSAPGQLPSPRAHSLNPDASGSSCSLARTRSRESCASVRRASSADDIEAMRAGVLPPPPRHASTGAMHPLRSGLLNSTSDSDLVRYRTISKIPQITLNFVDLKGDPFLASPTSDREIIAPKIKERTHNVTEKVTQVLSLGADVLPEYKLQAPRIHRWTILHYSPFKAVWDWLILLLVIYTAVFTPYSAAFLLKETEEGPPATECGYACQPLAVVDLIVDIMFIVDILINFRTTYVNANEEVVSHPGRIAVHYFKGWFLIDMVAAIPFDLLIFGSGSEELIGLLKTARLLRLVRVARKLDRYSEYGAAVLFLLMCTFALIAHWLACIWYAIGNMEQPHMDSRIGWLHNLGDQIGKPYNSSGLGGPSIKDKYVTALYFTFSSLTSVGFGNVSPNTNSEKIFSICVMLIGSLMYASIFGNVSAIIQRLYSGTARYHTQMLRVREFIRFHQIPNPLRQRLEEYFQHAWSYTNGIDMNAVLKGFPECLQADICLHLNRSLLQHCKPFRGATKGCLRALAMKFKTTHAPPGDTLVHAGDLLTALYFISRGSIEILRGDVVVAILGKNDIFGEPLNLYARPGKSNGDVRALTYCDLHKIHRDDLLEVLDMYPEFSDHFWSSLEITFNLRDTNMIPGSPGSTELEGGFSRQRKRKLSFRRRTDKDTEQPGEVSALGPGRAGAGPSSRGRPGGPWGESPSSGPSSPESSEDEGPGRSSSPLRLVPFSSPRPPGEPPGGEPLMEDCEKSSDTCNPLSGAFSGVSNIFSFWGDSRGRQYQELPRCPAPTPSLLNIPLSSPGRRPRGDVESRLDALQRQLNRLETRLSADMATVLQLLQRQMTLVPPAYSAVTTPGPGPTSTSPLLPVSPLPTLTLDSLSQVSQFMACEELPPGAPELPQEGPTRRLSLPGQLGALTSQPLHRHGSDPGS

[9] = human, plasma, oral, 120 mg, fed treatment group, read-out: PK plasma concentration, Geom. Mean
[10] = human, plasma, oral, 120 mg, fed treatment group, read-out: PK plasma concentration, Mean
[11] = human, plasma, oral, 120 mg, fed treatment group, read-out: PK plasma concentration, Median
[12] = human, plasma, po, 120 mg, Fasted N = 15, 120 mg MDMA·HCl, preliminary, arithmetic mean
[13] = human, plasma, po, 120 mg, Fed N = 11, 120 mg MDMA·HCl, preliminary, arithmetic mean
[14] = human, plasma, po, 120 mg, single 120 mg dose of MDMA·HCl, fasting

## CNC(C)Cc1ccc2c(c1)OCO2 (centres unmarked) [MDMA, 3,4-methylenedioxymethamphetamine]
[1]; human, plasma, oral, 120 mg, fed treatment group, 1 h, read-out: PK plasma concentration, Median
  concentration at 1 h: 47.4 ng/mL
[1]; [9]
  concentration at 2 h: 118 ng/mL
  concentration at 4 h: 222 ng/mL
  concentration at 6 h: 208 ng/mL
  concentration at 8 h: 173 ng/mL
  concentration at 12 h: 120 ng/mL
  concentration at 24 h: 42 ng/mL
  concentration at 48 h: 14.2 ng/mL
  concentration at 72 h: 11.3 ng/mL
  concentration at 0.5 h: 18.5 ng/mL
[1]; [10]
  concentration at 2 h: 129 ng/mL
  concentration at 4 h: 228 ng/mL
  concentration at 6 h: 215 ng/mL
  concentration at 8 h: 181 ng/mL
  concentration at 12 h: 129 ng/mL
  concentration at 24 h: 50.5 ng/mL
  concentration at 48 h: 7.41 ng/mL
  concentration at 72 h: 0.81 ng/mL
  concentration at 0.5 h: 10.2 ng/mL
[1]; [11]
  concentration at 2 h: 132 ng/mL
  concentration at 4 h: 224 ng/mL
  concentration at 6 h: 208 ng/mL
  concentration at 8 h: 180 ng/mL
  concentration at 12 h: 132 ng/mL
  concentration at 24 h: 41.4 ng/mL
  concentration at 48 h: 0 ng/mL
  concentration at 72 h: 0 ng/mL
  concentration at 0.5 h: 4.12 ng/mL
[1]; [12]
  Vd/F: 372 L
  AUC(0-inf): 3390 ng·h/mL
  half-life: 522 min
[1]; human, plasma, po, 120 mg, Fasted N = 15, 120 mg MDMA·HCl, preliminary, arithmetic mean, read-out: AUC0-72
  AUC(0-t): 3370 ng·h/mL
[1]; human, plasma, po, 120 mg, Fasted N = 15, 120 mg MDMA·HCl, preliminary, arithmetic mean, read-out: AUC0-t
  AUC(0-t): 3120 ng·h/mL
[1]; [13]
  Vd/F: 349 L
  half-life: 480 min
[1]; human, plasma, po, 120 mg, Fed N = 11, 120 mg MDMA·HCl, preliminary, arithmetic mean, read-out: AUC0-72
  AUC(0-t): 3300 ng·h/mL
[1]; human, plasma, po, 120 mg, Fed N = 11, 120 mg MDMA·HCl, preliminary, arithmetic mean, read-out: AUC0-t
  AUC(0-t): 3060 ng·h/mL
[1]; [14]
  AUC(0-inf): 3890 ng·h/mL
  half-life: 546 min
[1]; human, plasma, po, single 120 mg dose of MDMA·HCl, fasting, read-out: Tmax
  Tmax: ≤ 2 h
[1]; single 120 mg MDMA HCl
  plasma concentrations and PK parameters (Cmax, AUC0-t, AUC0-inf, AUC0-72, AUC% ext), fed vs fasted: not significantly different
[1]; single 120 mg dose of MDMA·HCl, fasting
  Tmax: 2.00 h
[1]; single 120 mg dose, estimated from Cmax 261 ng/ml and 51% protein binding
  unbound maximum concentration (Cmax): 0.66 µM
[2]
  inhibition of MDR1: not an inhibitor
[3]
  substrate of BCRP: not a substrate
[4]
  chromosomal aberrations: no signs of chromosomal aberrations
[5]; all MDMA-treated males relative to controls
  mean prostate gland weights: decreased
[5]; oral, up to the highest dose evaluated (10 mg/kg/day)
  fertility and reproductive performance: No effect on fertility and reproductive performance
[6]; read-out: AUC0-inf at which tolerability is supported
  AUC(0-inf): 8920 ng·h/mL
[6]; read-out: Cmax at which tolerability is supported
  Cmax: 440 ng/mL
[7]; any timepoint
  participants with SBP≥160 mmHg or DBP≥100 mmHg or temperature>38.3° C.: No participant
[7]; fasted condition
  time of largest mean changes in SBP, DBP, temperature: 2 h
[7]; fed group
  time of largest mean changes in SBP, DBP, temperature: 4 h
[7]; non-clinically significant
  difference in largest mean change of SBP, fasted vs fed: about +5 mmHg
  difference in largest mean change of temperature, fasted vs fed: ~+0.05 °C
[7]; screening to end of study
  impact on biologic laboratory parameters: no significant impact
[8]
  IC50: 206 µM
[8]; human
  Hill coefficient, hERG: 1.1
[8]; supratherapeutic single dose of 180 mg MDMA HCl
  margin of hERG IC50 over clinical plasma concentration: 111 x
